Measured values as given in patent publication US4018895A, “Aryloxyphenylpropylamines in treating depression” (Eli Lilly and Company, priority 1975, dated 1977).

Columns and labels:
[1] = test system: brain serotonin; assay: Prevention of brain serotonin depletion caused by 4-chloroamphetamine; type: in vivo; settings: rats injected with 4-chloroamphetamine; drug 15 mg./kg. intraperitoneally; 4 hours later
Procedure: Following this injection, the protecting drug was injected at a dose of 15 mg./kg. of rat-weight intraperitoneally and determinations of brain serotonin levels were carried out 4 hours later.

[2] = test system: hypothermia induced by the injection of apomorphine; assay: Apomorphine hypothermia antagonism test; type: in vivo, mice; settings: in words
Procedure: The apomorphine hypothermia antagonism test is carried out as follows: mice are injected with a dose of apomorphine known to reduce body temperature approximately 4° C. […] The degree of antagonism is expressed as a percent reduction (as compared with controls) of the temperature decrease produced by the injection of the apomorphine. The reserpine hypothermia reversal test is carried out as follows: groups of mice are injected with reserpine and 16.5 hours later are injected intraperitoneally with graded doses of the drug, a different dose level being given to each group of mice. Temperatures are measured at 1 hour after injection of the drug under test and again the effectiveness of the drug is expressed as a percentage decrease in the hypothermia induced by the injection of reserpine as compared with the control group. In the tablets which follow, Table 4 gives the results in the apomorphine antagonism and reserpine reversal hypothermia tests for the secondary amines of this invention. In the table, the first column gives the substituent attached to the oxygen atom at the 3 position of the propylamine chain; columns 2 to 4 the percent antagonism against apomorphine hypothermia at dose levels of 0.3, 1 and 3 mg./kg. and columns 5-7 the percent reversal of reserpine hypothermia at the same dose levels.

[3] = test system: hypothermia induced by the injection of reserpine; assay: Reserpine hypothermia reversal test; type: in vivo, mice; settings: in words
Procedure: The apomorphine hypothermia antagonism test is carried out as follows: mice are injected with a dose of apomorphine known to reduce body temperature approximately 4° C. The compound under test is injected 1/2 hour before the injection of the apomorphine and the temperatures measured 1/2 hour after injection. The degree of antagonism is expressed as a percent reduction (as compared with controls) of the temperature decrease produced by the injection of the apomorphine. The reserpine hypothermia reversal test is carried out as follows: groups of mice are injected with reserpine and 16.5 hours later are injected intraperitoneally with graded doses of the drug, a different dose level being given to each group of mice. Temperatures are measured at 1 hour after injection of the drug under test and again the effectiveness of the drug is expressed as a percentage decrease in the hypothermia induced by the injection of reserpine as compared with the control group. In the tablets which follow, Table 4 gives the results in the apomorphine antagonism and reserpine reversal hypothermia tests for the secondary amines of this invention. In the table, the first column gives the substituent attached to the oxygen atom at the 3 position of the propylamine chain; columns 2 to 4 the percent antagonism against apomorphine hypothermia at dose levels of 0.3, 1 and 3 mg./kg. and columns 5-7 the percent reversal of reserpine hypothermia at the same dose levels.

[4] = test system: response rates of pigeons; assay: Operant behavior, fixed-ratio, fixed interval schedule; type: in vivo; settings: in words
From the text: In manifesting their psychotropic action, the compounds of this invention also affect the behavior of animals trained in a variety of operant behavior schedules. Again, the activity of compounds of this invention in this type of test parallels that of known antidepressant drugs, particularly desmethylimipramine. […] With pigeons trained under an adjusting ratio schedule, the drugs of this invention affect behavior in the same way as does the marketed antidepressant, desmethylimipramine (DMI). […] The above results are consistent with antidepressant action.

[5] = test system: antihistaminic effect, isolated muscle strips; assay: Antihistaminic effect in isolated muscle strips
[6] = test system: anticholinergic effect, isolated muscle strips; assay: Anticholinergic effect in isolated muscle strips
[7] = test system: antiserotonin effect, isolated muscle strips; assay: Antiserotonin effect in isolated muscle strips

For CNCCCN1c2ccccc2CCc2ccccc21 [desmethylimipramine], the Brain serotonin level [1] was 0.44 ± .03 µg/g, the “Activity in antagonism of apomorphine hypothermia” value [2] was “active” and the “Activity in reversal of reserpine hypothermia” value [3] was “active”. The “Response rates in fixed-ratio, fixed interval schedule” value [4] was “A similar effect”, the “Potency as antihistaminic agent relative to N-methyl 3-(o-methoxyphenoxy)-3-phenylpropylamine” value [5] was 150 times and the “Potency as anticholinergic agent relative to N-methyl 3-(o-methoxyphenoxy)-3-phenylpropylamine” value [6] was 150 times. For the same compound, the “Potency as antiserotonin agent relative to N-methyl 3-(o-methoxyphenoxy)-3-phenylpropylamine” value [7] was “three”.
